Measured values published in US20260216345A1, “M6PR BINDING COMPOUNDS AND CONJUGATES” (Lycia Therapeutics, Inc., priority 2023, published 2026).
Entries after “also recorded” stand apart in the source; their conditions may differ. Each block holds one molecule with its values, some of them ahead of it.

Assays:
CI-M6PR [1] = biological target: T1, CI-M6PR (Homo sapiens, UniProt P11717); test: Human CI-M6PR binding assay (ELISA); set-up: purchased R&D 6418-GR-050; conditions: for binding affinity to M6PR, rank among the conjugates tested: matuzumab conjugates (FIGS. 7A-7F), I-7 at d8 (DAR 8), I-11 at d4 (DAR 4)
Procedure: Nunc black solid bottom MaxiSorp plates were allowed to incubate overnight at 4° C. coated with 1 μg/mL of recombinant human CI-M6PR protein (R&D, 6418-GR-050) in 50 μL PBS. The next day, coating was decanted and plates were washed 3× with PBS. Wells were blocked with 350 μL of 3% BSA-PBS for 1 hour at room temperature. […] 50 μL of diluted conjugates were added to the plate and allowed to incubate at room temperature for 2 hours. After incubation, solutions in plate were decanted and washed with 350 μL of 0.05% PBS-Tween20 three times, drying the plate each wash on a clean paper towel. 50 μL of peroxidase AffiniPure Mouse Anti-Human IgG (Jackson Immuno, 209-035-088) diluted in 3% BSA-PBS to […] was added to the plate and allowed to incubate for 1 hour at room temperature in the dark. After incubation, solutions in plate were decanted and washed with 350 μL of 0.05% PBS-Tween20 3 times, drying the plate each wash on a clean paper towel. […] 50 μL of QuantaBlu solution was added to wells and allowed to incubate for 5-10 minutes at room temperature. After incubation, plates were read on a Perkin Elmer EnVision using photometric 340 and Umbelliferone 460 filter sets for excitation and emission, respectively. Data analysis and non-linear curve-fitting was performed using GraphPad Prism.
Target sequence in this assay (P11717 41-1365 limits assumed): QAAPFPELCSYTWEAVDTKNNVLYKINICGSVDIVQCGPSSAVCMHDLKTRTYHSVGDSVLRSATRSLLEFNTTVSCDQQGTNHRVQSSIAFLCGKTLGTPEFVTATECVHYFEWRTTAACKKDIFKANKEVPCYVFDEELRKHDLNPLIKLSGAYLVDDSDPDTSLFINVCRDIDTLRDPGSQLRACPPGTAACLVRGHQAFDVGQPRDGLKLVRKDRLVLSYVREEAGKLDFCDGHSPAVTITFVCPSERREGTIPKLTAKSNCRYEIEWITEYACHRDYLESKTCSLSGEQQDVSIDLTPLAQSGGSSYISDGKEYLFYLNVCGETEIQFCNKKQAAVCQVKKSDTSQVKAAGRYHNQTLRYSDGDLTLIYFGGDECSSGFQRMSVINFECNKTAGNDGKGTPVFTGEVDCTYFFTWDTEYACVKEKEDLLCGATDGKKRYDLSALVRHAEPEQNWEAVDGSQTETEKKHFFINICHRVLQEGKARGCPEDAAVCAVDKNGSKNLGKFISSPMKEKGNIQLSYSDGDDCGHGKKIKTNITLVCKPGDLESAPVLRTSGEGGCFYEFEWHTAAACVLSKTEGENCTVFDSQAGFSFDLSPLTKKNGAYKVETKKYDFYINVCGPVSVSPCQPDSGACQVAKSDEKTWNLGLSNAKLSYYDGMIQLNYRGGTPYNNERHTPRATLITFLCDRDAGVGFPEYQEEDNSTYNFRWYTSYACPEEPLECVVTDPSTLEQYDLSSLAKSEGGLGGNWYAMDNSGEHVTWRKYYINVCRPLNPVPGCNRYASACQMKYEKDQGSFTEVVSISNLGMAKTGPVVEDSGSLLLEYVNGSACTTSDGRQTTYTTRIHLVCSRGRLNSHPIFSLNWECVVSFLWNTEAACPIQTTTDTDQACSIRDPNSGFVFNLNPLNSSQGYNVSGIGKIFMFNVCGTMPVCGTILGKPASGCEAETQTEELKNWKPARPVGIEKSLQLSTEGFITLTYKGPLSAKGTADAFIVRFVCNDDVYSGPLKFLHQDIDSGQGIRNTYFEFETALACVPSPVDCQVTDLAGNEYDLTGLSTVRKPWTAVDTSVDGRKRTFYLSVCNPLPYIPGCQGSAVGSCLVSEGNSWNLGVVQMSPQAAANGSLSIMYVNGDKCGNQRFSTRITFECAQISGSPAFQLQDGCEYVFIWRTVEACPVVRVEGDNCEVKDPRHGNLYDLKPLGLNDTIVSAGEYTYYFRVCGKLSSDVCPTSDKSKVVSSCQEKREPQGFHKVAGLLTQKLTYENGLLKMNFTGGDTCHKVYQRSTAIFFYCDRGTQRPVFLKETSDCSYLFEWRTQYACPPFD

Jurkat cells [2] = test: Uptake of IgE-Alexa488 target protein in Jurkat cells; assay type: cell-based
Procedure: The omalizumab conjugates of Example 142 were bound to IgE-Alexa488 (prepared according to Example 144), as follows: equal molar ratios of omalizumab (anti-IgE) conjugate and IgE-Alexa488 were added in tissue culture media for 30 minutes at room temperature. The resulting anti-IgE conjugate:IgE antibody-Alexa488 compositions were added to Jurkat cells (100 k cells/50 ul per well, n=2), and Alexa488 fluorescence levels in the cells were measured at 1 hour by flow cytometry. As the fluorescently labelled target (IgE antibody) accumulates in cells, the fluorescence presents a way to measure total intracellular uptake by cells over time.

CI-M6PR [3] = biological target: T1, CI-M6PR; test: CI-M6PR SPR binding assay; conditions: omalizumab conjugates at DAR of about 4; relative to 529 and 552
Procedure: The CI-M6PR binding affinities of omalizumab (anti-IgE) conjugates of Table 19 were also assessed via SPR binding assay. […] At equivalent DAR (m) values, the koff rate of the omalizumab (anti-IgE) conjugates was 552>529>570.
Target sequence in this assay (P11717 41-2491): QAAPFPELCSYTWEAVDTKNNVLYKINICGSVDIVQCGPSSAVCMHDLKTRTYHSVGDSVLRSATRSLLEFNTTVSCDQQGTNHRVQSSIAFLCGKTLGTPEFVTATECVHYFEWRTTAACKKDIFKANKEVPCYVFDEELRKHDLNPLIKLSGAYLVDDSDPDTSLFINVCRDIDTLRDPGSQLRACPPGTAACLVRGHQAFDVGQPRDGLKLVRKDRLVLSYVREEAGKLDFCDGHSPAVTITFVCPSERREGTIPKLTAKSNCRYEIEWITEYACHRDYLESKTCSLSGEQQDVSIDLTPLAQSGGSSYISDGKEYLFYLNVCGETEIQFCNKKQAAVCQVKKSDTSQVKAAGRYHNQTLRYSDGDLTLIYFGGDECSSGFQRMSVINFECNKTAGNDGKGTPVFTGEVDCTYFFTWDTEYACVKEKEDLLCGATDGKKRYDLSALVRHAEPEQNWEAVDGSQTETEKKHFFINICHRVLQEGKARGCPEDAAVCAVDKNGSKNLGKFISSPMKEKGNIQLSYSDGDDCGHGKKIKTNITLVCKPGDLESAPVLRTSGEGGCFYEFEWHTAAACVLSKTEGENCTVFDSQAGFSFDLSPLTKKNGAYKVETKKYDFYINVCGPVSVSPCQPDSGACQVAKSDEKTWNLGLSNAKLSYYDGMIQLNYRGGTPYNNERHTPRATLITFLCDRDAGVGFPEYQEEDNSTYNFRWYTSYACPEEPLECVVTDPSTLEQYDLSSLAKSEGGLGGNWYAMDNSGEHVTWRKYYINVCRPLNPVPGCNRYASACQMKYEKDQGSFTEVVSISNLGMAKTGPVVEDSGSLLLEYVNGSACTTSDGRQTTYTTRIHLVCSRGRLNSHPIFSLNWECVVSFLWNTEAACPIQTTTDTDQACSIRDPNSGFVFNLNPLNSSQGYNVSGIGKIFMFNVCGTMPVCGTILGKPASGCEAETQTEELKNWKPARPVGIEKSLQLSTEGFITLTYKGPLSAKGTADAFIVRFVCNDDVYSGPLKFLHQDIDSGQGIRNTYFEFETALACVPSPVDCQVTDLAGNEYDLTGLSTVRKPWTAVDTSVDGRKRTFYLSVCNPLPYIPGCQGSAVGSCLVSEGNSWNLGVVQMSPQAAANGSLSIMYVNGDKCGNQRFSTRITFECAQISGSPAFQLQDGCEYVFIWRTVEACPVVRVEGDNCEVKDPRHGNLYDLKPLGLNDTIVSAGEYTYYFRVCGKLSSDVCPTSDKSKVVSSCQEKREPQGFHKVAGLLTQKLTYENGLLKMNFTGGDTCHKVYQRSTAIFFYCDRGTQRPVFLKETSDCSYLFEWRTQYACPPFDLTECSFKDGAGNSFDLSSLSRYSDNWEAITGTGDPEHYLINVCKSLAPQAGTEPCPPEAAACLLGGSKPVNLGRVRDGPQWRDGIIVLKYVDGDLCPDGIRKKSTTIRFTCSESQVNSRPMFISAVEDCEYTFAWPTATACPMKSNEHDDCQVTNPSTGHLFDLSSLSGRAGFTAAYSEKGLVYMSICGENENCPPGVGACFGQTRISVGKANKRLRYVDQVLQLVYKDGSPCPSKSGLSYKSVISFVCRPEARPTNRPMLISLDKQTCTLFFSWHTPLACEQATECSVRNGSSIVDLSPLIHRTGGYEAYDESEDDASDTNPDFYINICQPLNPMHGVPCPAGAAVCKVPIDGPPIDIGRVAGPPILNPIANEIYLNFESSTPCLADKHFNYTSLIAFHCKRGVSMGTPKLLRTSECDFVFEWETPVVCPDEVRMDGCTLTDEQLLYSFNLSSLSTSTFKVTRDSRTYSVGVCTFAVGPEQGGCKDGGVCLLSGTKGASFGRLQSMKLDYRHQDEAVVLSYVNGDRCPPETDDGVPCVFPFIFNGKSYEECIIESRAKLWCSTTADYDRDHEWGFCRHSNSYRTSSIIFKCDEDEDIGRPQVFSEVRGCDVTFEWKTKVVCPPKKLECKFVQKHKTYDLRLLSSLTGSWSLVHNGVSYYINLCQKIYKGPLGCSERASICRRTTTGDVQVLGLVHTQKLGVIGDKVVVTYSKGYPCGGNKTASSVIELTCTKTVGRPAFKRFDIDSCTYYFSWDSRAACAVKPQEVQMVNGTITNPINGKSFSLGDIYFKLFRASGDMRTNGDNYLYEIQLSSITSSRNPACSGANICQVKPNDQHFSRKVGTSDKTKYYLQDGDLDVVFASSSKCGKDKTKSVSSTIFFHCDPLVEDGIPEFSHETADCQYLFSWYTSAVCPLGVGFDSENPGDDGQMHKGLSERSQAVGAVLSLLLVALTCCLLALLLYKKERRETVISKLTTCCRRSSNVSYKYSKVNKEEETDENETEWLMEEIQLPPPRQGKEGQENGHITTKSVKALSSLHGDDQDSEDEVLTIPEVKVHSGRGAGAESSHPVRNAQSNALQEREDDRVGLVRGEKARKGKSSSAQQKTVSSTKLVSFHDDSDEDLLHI

[4] = Serum pharmacokinetic analysis of rIgG1 (anti-IgG2a) antibody conjugates; assay type: in vivo, mice; conditions: intravenous 10 μg/mouse, compared to Compound I-7
Procedure: A pharmacokinetic analysis of the rIgG1 (anti-IgG2a) antibody conjugates described in the previous example was performed in mice. In particular, […] mice were intravenously administered each rIgG1 antibody conjugate at 10 μg/mouse (5 mice per group). Blood was collected at 0.5, 1, 2, 6, and 24 hours and serum rIgG1 was analyzed using an ELISA kit (Abcam) according to the manufacturer's instructions. Samples were run across 3 different plates with unconjugated rIgG1 controls (UNLB-anti-IgG2a rIgG1) included on all 3 plates. FIGS. 8A-8C show the serum levels of anti-IgG2a conjugated to Compound 1-7 (dar8) and (dar4) (FIG. 8A), anti-IgG2a conjugated to Compound I-10 and anti-IgG2a conjugated to Compound I-11 (FIG. 8B), and anti-IgG2a conjugated to Compound I-9 and anti-IgG2a conjugated to Compound I-12 (FIG. 8C) over time.

Jurkat cells [5] = test: Uptake of IgG2a-Alexa488 into Jurkat cells; assay type: cell-based; conditions: anti-IgG2a conjugates, 1 hour and 24 hours
Procedure: The anti-IgG2a conjugates were bound to IgG2a-Alexa488, as follows: equal molar ratios of anti-IgG2a and IgG2a-Alexa488 were added in tissue culture media for 30 minutes at room temperature. The resulting anti-IgG2a:IgG2a antibody-Alexa488 compositions were added to Jurkat cells (100 k cells/50 ul per well, n=2), and Alexa488 fluorescence levels were measured (via Alexa488 measurement) at 1 hour and 24 hours by flow cytometry. As the fluorescently labelled target (IgG2a antibody) accumulates in cells, the fluorescence presents a way to measure total intracellular uptake by cells over time.

M6PR (Domains 1-9) = biological target: T2, M6PR (Domains 1-9) (Homo sapiens, UniProt P11717); test: General M6PR binding assay (fluorescence polarization); conditions: 100 nM M6PR, 1 nM probe, 2 hr incubation
T2 construct: with 100 nM M6PR (Domains 1-9, R&D Systems) and 1 nM probe; purchased R&D Systems
T2 sequence (P11717 41-1365 limits assumed): as the sequence (P11717 41-1365 limits assumed) above
Procedure: M6PR binding was measured in black 96-well plates using a fluorescence polarization assay. A fluorescent probe consisting of a reference M6Pn ligand linked to Cy5 was synthesized. Test compounds were resuspended in DMSO and 3-fold serial dilutions were made at 100× final concentrations. Binding reactions were conducted in 100 μl final volume in 20 mM HEPES (pH 7.5) 100 mM NaCl 0.015% o Tween-20 1% DMSO with 100 nM M6PR (Domains 1-9, R&D Systems) and 1 nM probe. Fluorescence polarization was measured using λex=620 nm, λem=688 nm on an Envision plate reader (Perkin Elmer) after 2 hr incubation time. Dose responses were conducted in duplicate and normalized to the response with DMSO (high) and 1 μM reference compound (low) on each plate. IC50 values were determined by fitting to 4-parameter curves in GraphPad Prism.

[6] = omalizumab conjugates of Table 15B, Jurkat cells, 1 hour (FIG. 18-21)
[7] = omalizumab conjugates of Table 19, Jurkat cells (FIG. 23)
[8] = omalizumab conjugates of Table 15A, Jurkat cells, 1 hour (FIG. 15-17)

Structure (SMILES): O=C(CCOCCOCCOCCOCCn1cc(CCCCNC(=S)Nc2ccc(O[C@H]3O[C@H](CCP(=O)(O)O)[C@@H](O)[C@H](O)[C@@H]3O)cc2)nn1)Oc1c(F)c(F)c(F)c(F)c1F [520 (I-7)]
binding affinity to M6PR, rank among the conjugates tested (CI-M6PR [1]): highest

Structure (SMILES): O=C(CCOCCn1cc(CCO[C@H]2O[C@H](CCP(=O)(O)O)[C@@H](O)[C@H](O)[C@@H]2O)nn1)Oc1c(F)c(F)c(F)c(F)c1F [605 (I-11)]
binding affinity to M6PR, rank among the conjugates tested (CI-M6PR [1]): lowest binding affinity

Structure (SMILES): O=C(NCCCCc1cn(CCOCCOCCOCCOCCC(=O)Oc2c(F)c(F)c(F)c(F)c2F)nn1)Nc1ccc(S[C@H]2O[C@H](CCP(=O)(O)O)[C@@H](O)[C@H](O)[C@@H]2O)cc1 [Compound 552]
cellular uptake activity of Alexa488 labeled-target IgE (Jurkat cells [2]; [6]): comparable activity; also recorded: more activity when at m=6 loading versus m=4 loading
cellular uptake activity of Alexa488 labeled-target IgE (Jurkat cells [2]; [7]): comparable by less activity

Structure (SMILES): O=C(NCCCCc1cn(CCOCCOCCOCCOCCC(=O)Oc2c(F)c(F)cc(F)c2F)nn1)Nc1ccc(O[C@H]2O[C@H](CCP(=O)(O)O)[C@@H](O)[C@H](O)[C@@H]2O)cc1 [Compound 558]
cellular uptake activity of Alexa488 labeled-target IgE (Jurkat cells [2]; [8]): active in this assay, although less active

Structure (SMILES): O=C(NCCCCc1cn(CCOCCOCCOCCOCCC(=O)Oc2c(F)c(F)c(F)c(F)c2F)nn1)Nc1ccc(S[C@@H]2O[C@H](CCP(=O)(O)O)[C@@H](O)[C@H](O)[C@@H]2O)cc1 [Compound 570]
cellular uptake activity of Alexa488 labeled-target IgE (Jurkat cells [2]; [6]): superior activity
cellular uptake activity of Alexa488 labeled-target IgE (Jurkat cells [2]; [7]): superior activity
Kd (CI-M6PR [3]): superior Kd

Structure (SMILES): CO[C@H]1O[C@H](COCCCCCc2cn(CCOCCOCCOCCOCCC(=O)Oc3c(F)c(F)c(F)c(F)c3F)nn2)[C@@H](O)[C@H](O)[C@@H]1O[C@H]1O[C@H](CCP(=O)(O)O)[C@@H](O)[C@H](O)[C@@H]1O [Compound 659]
cellular uptake activity of Alexa488 labeled-target IgE (Jurkat cells [2]; [6]): potent and comparable activity

Structure (SMILES): CO[C@H]1C[C@H](c2cn(CCOCCOCCOCCOCCOCCOCCC(=O)Oc3c(F)c(F)c(F)c(F)c3F)nn2)[C@@H](O)[C@H](O)[C@@H]1O[C@H]1O[C@H](CCP(=O)(O)O)[C@@H](O)[C@H](O)[C@@H]1O [Compound 660]
cellular uptake activity of Alexa488 labeled-target IgE (Jurkat cells [2]; [6]): potent and comparable activity

Structure (SMILES): O=C(NCCCCc1cn(CCOCCOCCOCCOCCC(=O)Oc2c(F)c(F)c(F)c(F)c2F)nn1)Nc1ccc(O[C@H]2C[C@H](CCP(=O)(O)O)[C@@H](O)[C@H](O)[C@@H]2O)cc1 [Compound 665]
cellular uptake activity of Alexa488 labeled-target IgE (Jurkat cells [2]; [8]): low activity

Structure (SMILES): O=C(CCOCCOCCOCCN(CCOCCOCCOCCn1cc(CCO[C@H]2O[C@H](CCP(=O)(O)O)[C@@H](O)[C@H](O)[C@@H]2O)nn1)CCOCCOCCOCCn1cc(CCO[C@H]2O[C@H](CCP(=O)(O)O)[C@@H](O)[C@H](O)[C@@H]2O)nn1)Oc1c(F)c(F)c(F)c(F)c1F [Compound 716]
cellular uptake activity of Alexa488 labeled-target IgE (Jurkat cells [2]; [8]): inferior uptake

Structure (SMILES): O=C(CCOCCn1cc(CCO[C@H]2O[C@H](CCP(=O)(O)O)[C@@H](O)[C@H](O)[C@@H]2O)nn1)Oc1c(F)c(F)c(F)c(F)c1F [Compound I-11]
half-life in mice [4]: longer half-life
binding affinity to M6PR compared to Compound I-7 (CI-M6PR [1]; conjugates of ligand linkers): weaker binding affinity
intracellular uptake of IgG2a-Alexa488 (Jurkat cells [5]): sufficiently robust uptake

IC50 (M6PR (Domains 1-9)): 0.1 to 0.5 µM
Structure (SMILES): O=C(NCCCCc1cn(-c2cccnc2)nn1)Nc1ccc(O[C@@H]2O[C@H](CCP(=O)(O)O)[C@@H](O)[C@H](O)[C@@H]2O)cc1 [Compound P1]

IC50 (M6PR (Domains 1-9)): 0.1 to 0.5 µM
Structure (SMILES): O=C(NCCCCc1cn(-c2cccnc2)nn1)Nc1ccc(O[C@H]2O[C@H](CCP(=O)(O)O)[C@@H](O)[C@H](O)[C@@H]2O)cc1 [Compound P2]

IC50 (M6PR (Domains 1-9)): 0.1 to 0.5 µM
Structure (SMILES): O=C(NCCCCc1cn(-c2cccnc2)nn1)Nc1ccc(S[C@@H]2O[C@H](CCP(=O)(O)O)[C@@H](O)[C@H](O)[C@@H]2O)cc1 [Compound P3]

IC50 (M6PR (Domains 1-9)): 0.1 to 0.5 µM
Structure (SMILES): O=C(NCCCCc1cn(-c2cccnc2)nn1)Nc1ccc(S[C@H]2O[C@H](CCP(=O)(O)O)[C@@H](O)[C@H](O)[C@@H]2O)cc1 [Compound P4]
